Assay results reported in ChEMBL document CHEMBL3507680, “University of Dundee, Gates Library screen for HepG2 cell viability”.

Assay: Human HepG2 cell viability assay in 384 well format
Format: toxicity, cell-based
Set-up: dose 125 nL, time 70.5 hour; cytotoxicity at 70.5 h: concentration not given beside the values
Conditions: HepG2 cells, read-out: Inhibition

Row | Compound | cytotoxicity at 70.5 h [%]
1 | CN1CCN(C(=O)NC2CCCC2)Cc2cccnc21 | -4.32
2 | COc1cccc(NC(=O)CC2Cn3ncnc3NC2=O)c1 (stereo unspecified) | -10.6
3 | Cc1c(CCC(=O)Nc2ccc(Br)cn2)cnn1C | -5.19
4 | Cc1cnn(CC2CCCN2CCCS(C)(=O)=O)c1 (stereo unspecified) | -2.25
5 | Cc1nc(CO[C@H]2CN(Cc3cccs3)[C@@H]3COC[C@H]23)cs1 | -3.05
6 | COCCN(C)C(=O)c1ccc2onc(-c3coc(C)n3)c2c1 | -16.8
7 | O=C1CN(C(=O)c2cc3c(F)cc(Br)cc3[nH]2)CCN1 | -4.59
8 | CC(C)c1noc(CCC(=O)NCC2CC2)n1 | 23.5
9 | O=C(CCC(=O)Nc1ccccc1)NCC(=O)c1ccc(F)cc1F | 5.75
10 | Cc1nc2c(c(NCC(O)c3ccccc3Cl)n1)CCNCC2 (stereo unspecified) | -11.8
11 | COc1ccc2c(c1)CC(C1CCOCC1)N(C(=O)c1ccnn1C)C2 (stereo unspecified) | -0.842
12 | Cc1nn(C)c(C)c1CCC(=O)Nc1cccn(C)c1=O | -3.26
13 | O=C(NCCNc1ncccn1)c1ccc(Br)cc1 | -15.1
14 | CCN(Cc1cccc(F)c1)S(=O)(=O)N1CCOCC1 | 0.239
15 | CC(C)Cc1nc(NC(=O)c2cccnc2)n[nH]1 | -14.7
16 | CC(C)N1CCC(CC(=O)N(C)CC(=O)c2ccc(O)cc2)CC1 | -1.48
17 | Cc1noc(C)c1CCC(=O)N1CCn2cccc2C1C (stereo unspecified) | -0.947
18 | CC(NC(=O)c1ccoc1)C(=O)N(C)Cc1ccsc1 (stereo unspecified) | -5.45
19 | CCN1CCOCC2(CCCN(C(=O)c3cccc(O)c3)C2)C1 (stereo unspecified) | -6.13

Row | Compound | cytotoxicity at 70.5 h [%]
20 | CCCN(CC)C(=O)c1ncn2c1CN(C)S(=O)(=O)c1ccccc1-2 | 1.29
21 | O=C(N1CCCO1)[C@@]12CCO[C@@H]1CCN(Cc1cccnc1)C2 | -9.68
22 | Cn1cnc(S(=O)(=O)N2CCCC2c2cnccn2)c1 (stereo unspecified) | -9.6
23 | O=C(Cn1ccnc1)N1C[C@@H]2CC[C@H](Oc3ccccc3Cl)[C@@H]2C1 | 1.01
24 | Cc1ccc2nc(C)cc(C(=O)NC(C)c3nnn[nH]3)c2c1 (stereo unspecified) | -0.653
25 | Cc1nn(C)c(C)c1C1CCCN1Cc1nc(-c2ccco2)no1 (stereo unspecified) | -19.8
26 | O=C(Cc1ccccc1)NCCNS(=O)(=O)C1CCCCC1 | -2.64
27 | c1ccc(-c2noc(CN3CCc4c(ncn4C4CC4)C3)n2)nc1 | -6.92
28 | N[C@@H]1CCCN(C(=O)Cc2c[nH]c3ccccc23)[C@H]1c1ccccc1F | 23.2
29 | O=C(C1CCOCC1)N1C[C@H]2C[C@H](OCc3ccccc3)C[C@H]2C1 | -3.41
30 | CN(c1cccnn1)C1CCN(C(=O)Cc2c[nH]c3ccccc23)CC1 | -4.23
31 | O=C(O)C1CN(c2cccc(Cl)c2)CCO1 (stereo unspecified) | -4.2
32 | c1ccc(Cn2cccn2)c(CN2CCC3(CCCNC3)C2)c1 (stereo unspecified) | 0.428
33 | CC(C)[C@H]1CN(Cc2nccn2C)C[C@@H]1NC(=O)COCC(N)=O | -9.51
34 | CC(c1cn2ncsc2n1)N1Cc2ncccc2C1=O (stereo unspecified) | -10.3
35 | COc1cc2cc3c(nc2cc1OC)OCCN(CC1CC1)C3 | -2.88
36 | CN(C)CCN(C)C(=O)c1cn(CC2CCCCC2)nn1 | -18.4
37 | CNC(=O)c1ccc(-c2ccc(CNS(=O)(=O)N(C)C)cc2)nc1C | -0.408
38 | CCN(C)Cc1cccc(CNC(=O)NCCc2ccccn2)c1 | -3.19

Row | Compound | cytotoxicity at 70.5 h [%]
39 | CCC(CO)NCc1ccc(-c2ccc(F)c(Cl)c2)o1 (stereo unspecified) | 3.9
40 | COCC(=O)N1CC[C@H]2C[C@H](C)O[C@@H]2C1 | -7.04
41 | O=C(c1cnc(-c2cnccn2)s1)N1CCCC(n2cccn2)C1 (stereo unspecified) | -6.04
42 | N#Cc1cn(C2CC2)c(=O)n(CC(O)c2ccc(OC(F)F)cc2)c1=O (stereo unspecified) | -17.5
43 | CN(CCc1cccs1)C(=O)Nc1cnn(CC2CCCO2)c1 (stereo unspecified) | -16
44 | Cc1ccoc1C(=O)N1Cc2c(CN3CCCCC3)nn(C)c2C1 | 0.575
45 | c1ccc(COCC2CN(Cc3ccsc3)Cc3nccn3C2)nc1 (stereo unspecified) | -7.86
46 | CCN(Cc1cnn(C)c1)S(=O)(=O)c1ccc(NC(C)=O)cc1 | 9.84
47 | CC(C)Cc1noc(CN(C)c2cc(C(C)C)nc3ccnn23)n1 | 5.41
48 | Cn1cc(C(=O)N2CCCC(Cc3cccc4ncccc34)C2)cn1 (stereo unspecified) | -3.73
49 | CN(C)c1nccc(C2CCCN(C(=O)CO)C2)n1 (stereo unspecified) | -7.31
50 | COc1ccc(CCC(=O)Nc2ccc3ncn(C)c(=O)c3c2)cc1 | -2.91
51 | CCC(=O)NCC1(O)CCC(C(C)(C)C)CC1 (stereo unspecified) | -4.59
52 | CC1CCCCN1C1CN(C(=O)c2sccc2S(N)(=O)=O)C1 (stereo unspecified) | -2.85
53 | O=C(O)CSc1nnc(-c2ccn[nH]2)n1-c1ccccc1C(F)(F)F | -3.95
54 | Cc1ccc(CN2CCN(CC(=O)Nc3ccc4nsnc4c3)CC2)o1 | -5.71
55 | CC(C)(C)c1cc(CN2CC[C@@H](NC(=O)c3cccnc3)[C@H](O)C2)n[nH]1 | 0.738
56 | COc1ccc2[nH]cc(-c3ccnc(NC4CCCC4)n3)c2c1 | -0.782
